The target of one assay is recombinant IDO1 (Homo sapiens, UniProt P14902). As to the kind of experiment: IDO1 enzymatic assay (UV absorption, N-formylkynurenine formation). In kind it is biochemical. Conditions: for IC50: 40 nM IDO1, 900 μM tryptophan, 180 min, room temperature, read-out: Enzyme IDO IC50; for Enzyme IDO IC50 ratio compared to Cmpd 2: IC50 of compound divided by IC50 of reference compound 2. On the procedure:
(§1) The assay was performed by UV absorption using either recombinant IDO1 or TDO2 and L-Tryptophan as substrate. The UV absorption signal at 321 nm was correlated with the amount of N-formylkynurenine reaction product of IDO1 and TDO2.
(§2) The compounds of the present application were diluted in 10% DMSO and 5 μl of the dilution was added to a 100 μl reaction so that the final concentration of DMSO is 0.5% in all reactions.
IDO1 Assay: All of the reactions were conducted at room temperature. The 100 μl reaction mixture in IDO Assay Buffer contains 40 nM IDO1, the indicated amount of the compound, 900 μM tryptophan, and the coupled reaction components. The reaction mixture was incubated for 180 min prior to reading of the UV absorption signal. For the negative control (blank), 5 μl of the assay buffer was added instead of the IDO1.
(§3) Absorption signals were measured using a Tecan Infinite M1000 plate reader.
(§4) Data analysis: Binding experiments were performed in duplicate at each concentration. The data were analyzed using the computer software, Graphpad Prism. In the absence of the compound, the absorption signal (At) in each data set was defined as 100% activity. In the absence of the IDO1, the absorption signal (Ab) in each data set was defined as 0% activity. The percent activity in the presence of each compound was calculated according to the following equation: % activity=[(A−Ab)/(At−Ab)]×100, where A=the absorption signal in the presence of the compound. The percent inhibition was calculated according to the following equation: % inhibition=100−% activity. The values of % activity versus a series of compound concentrations were then plotted using non-linear regression analysis of Sigmoidal dose-response curve generated with the equation Y=B+(T−B)/1+10^((LogIC50−X)×Hill Slope), where Y=percent activity, B=minimum percent activity, T=maximum percent activity, X=logarithm of compound and Hill Slope=slope factor or Hill coefficient. The IC50 value was determined by the concentration causing a half-maximal percent activity.

The next assay addresses recombinant TDO2 (Homo sapiens, UniProt P48775). As to the kind of experiment: TDO2 enzymatic assay (UV absorption, N-formylkynurenine formation). In kind it is biochemical. As to conditions: for IC50: 50 nM TDO2, 200 μM tryptophan, 60 min, room temperature, read-out: Enzyme TDO IC50; for Enzyme TDO IC50 ratio compared to Ref. Cmpd 1: IC50 of compound divided by IC50 of Ref. Cmpd 1. On the procedure:
as §1, §2
TDO2 Assay: All of the reactions were conducted at room temperature. The 100 μl reaction mixture in TDO2 Assay Buffer contains 50 nM TDO2, the indicated amount of the compound, 200 μM tryptophan, and the coupled reaction components. The reaction mixture was incubated for 60 min prior to reading of the UV absorption signal. For the negative control (blank), 5 μl of the assay buffer was added instead of the TDO2.
as §3
as §4, with “The percent inhibition was calculated according to the following equation: % inhibition=100−% activity.” left out

Chain of recombinant TDO2 (P48775 whole entry, species assumed): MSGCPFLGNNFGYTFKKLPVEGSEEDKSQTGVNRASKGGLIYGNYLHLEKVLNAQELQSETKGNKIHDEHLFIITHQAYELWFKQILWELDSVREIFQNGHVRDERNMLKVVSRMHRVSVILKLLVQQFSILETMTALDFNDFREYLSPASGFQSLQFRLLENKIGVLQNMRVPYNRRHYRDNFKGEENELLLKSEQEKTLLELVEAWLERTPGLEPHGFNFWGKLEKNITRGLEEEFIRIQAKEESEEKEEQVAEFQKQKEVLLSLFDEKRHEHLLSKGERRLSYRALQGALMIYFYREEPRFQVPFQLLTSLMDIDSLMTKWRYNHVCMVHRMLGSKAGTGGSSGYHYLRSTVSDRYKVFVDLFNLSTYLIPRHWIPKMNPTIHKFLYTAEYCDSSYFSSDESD
Chain of recombinant IDO1 (P14902 whole entry, species assumed): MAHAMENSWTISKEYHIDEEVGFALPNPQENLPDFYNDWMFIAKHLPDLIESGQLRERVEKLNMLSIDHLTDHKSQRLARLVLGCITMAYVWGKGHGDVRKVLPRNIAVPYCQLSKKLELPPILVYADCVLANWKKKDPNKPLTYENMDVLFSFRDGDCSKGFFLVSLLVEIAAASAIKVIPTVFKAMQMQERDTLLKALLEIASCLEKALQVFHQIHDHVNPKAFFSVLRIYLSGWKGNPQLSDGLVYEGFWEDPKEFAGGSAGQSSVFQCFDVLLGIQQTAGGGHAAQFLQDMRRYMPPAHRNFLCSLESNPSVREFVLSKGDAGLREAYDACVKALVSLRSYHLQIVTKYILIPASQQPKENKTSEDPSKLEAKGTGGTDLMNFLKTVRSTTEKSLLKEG

On to `OC1c2ccccc2C(CC(O)C2CCCCC2)n2cncc21` (centres unmarked) [Cmpd 298], for which the 50% inhibitory concentration (IC50) on recombinant IDO1 and at recombinant TDO2 was > 30 µM throughout.
Turning to `OC1CCC(C(O)CC2(C(F)(F)F)c3c(F)cccc3-c3cncn32)CC1` (centres unmarked) [Cmpd 292], the IC50 at recombinant IDO1 and at recombinant TDO2 was > 100 µM each time.
For `CC1c2ccccc2-c2cncn2C1C(O)C1CCCCC1` (centres unmarked) [Cmpd 294], the IC50 at recombinant IDO1 and at recombinant TDO2 was > 30 µM in each case.
With `OC1CCC(C(F)CC2Cc3ccccc3-c3cncn32)CC1` (centres unmarked) [Cmpd 310], at recombinant IDO1, the half-maximal inhibitory concentration (IC50) (as a rule, the concentration needed to halve the response being measured) was 1.2 µM and the “Enzyme IDO IC50 ratio compared to Cmpd 2” value came to 32.43. In addition, on recombinant TDO2, the IC50 was 1.9 µM and the “Enzyme TDO IC50 ratio compared to Ref. Cmpd 1” value (from here on “Enzyme TDO IC50 ratio”) worked out at 5.67.
The like results for `FC(CC1Cn2cncc2-c2ccccc21)C1CCCCC1` (centres unmarked) [Cmpd 307] were, in that order, 0.299 µM, 7.29, 0.052 µM and 0.25.
For `O[C@@H](C[C@@H]1Cn2cncc2-c2ccccc21)C1CCCCC1` (racemic) [Cmpd 306], in that order: 1.2 µM, 29.27, 0.286 µM and 1.35.
For `CC1(CC(O)C2CCCCC2)c2ccccc2-c2cncn21` (centres unmarked) [Cmpd 296], in that order: 13.1 µM, 195.52, 2.3 µM and 2.30.
With `OC(CC1CCc2ccccc2-c2cncn21)C1CCCCC1` (centres unmarked) [Cmpd 279], at recombinant IDO1, the IC50 was 7.1 µM and the “Enzyme IDO IC50 ratio compared to Cmpd 2” value worked out at 165.12. Further, on recombinant TDO2, the concentration for half-maximal inhibition (IC50) was found to be 2.36 µM and the “Enzyme TDO IC50 ratio” value was determined as 6.21.
The like results for `OC(CC1c2ccccc2Cc2cncn21)C1CCCCC1` (centres unmarked) [Cmpd 297] were, in that order, 14 µM, 129.63, 2.2 µM and 6.90.
Take `OC(CC1(C(F)(F)F)c2ccccc2-c2cncn21)C1CCCCC1` (single isomer, unassigned) [Cmpd 290]: the IC50 at recombinant IDO1 is > 100 µM. The “Enzyme TDO IC50 ratio” value on recombinant TDO2 was 18.75.
In the case of `OC1CCC(C(O)CC2(C(F)(F)F)c3c(F)cccc3-c3cncn32)CC1` (centres unmarked) [Cmpd 293], the half-maximal inhibitory concentration (IC50) at recombinant IDO1 and at recombinant TDO2 was > 100 µM in each case.
For `FC(CC1Cc2ccccc2-c2cncn21)C1CCCCC1` (centres unmarked) [Cmpd 301], at recombinant IDO1, the IC50 was found to be 0.133 µM and the “Enzyme IDO IC50 ratio compared to Cmpd 2” value is given as 1.51. In addition, at recombinant TDO2, the IC50 was 0.096 µM and the “Enzyme TDO IC50 ratio” value amounted to 0.12.
For `OC(CC1C(O)c2ccccc2-c2cncn21)C1CCCCC1` (centres unmarked) [Cmpd 308], in that order: 23 µM, 442.31, 14.2 µM and 62.28.
For `OC(CC1C(O)c2ccccc2-c2cncn21)C1CCCCC1` (centres unmarked) [Cmpd 309], in that order: 5.5 µM, 105.77, 7.6 µM and 33.33.
The like results for `FC(CC1Cc2ccccc2-c2cncn21)C1CCCCC1` (centres unmarked) [Cmpd 312] were, in that order, 0.049 µM, 1.32, 0.078 µM and 0.23.
For `O[C@@H](C[C@H]1Cn2cncc2-c2ccccc21)C1CCCCC1` (racemic) [Cmpd 305], on recombinant IDO1, the concentration for half-maximal inhibition (IC50) came out at 0.328 µM and the “Enzyme IDO IC50 ratio compared to Cmpd 2” value came out at 8.00. Further, at recombinant TDO2, the IC50 amounted to 0.166 µM and the “Enzyme TDO IC50 ratio” value was 0.78.
Consider `OC(CC1Cc2ccccc2-c2cncn21)C1CCCCC1` (centres unmarked) [Cmpd 278], for which, at recombinant IDO1, the IC50 amounted to 0.149 µM and the “Enzyme IDO IC50 ratio compared to Cmpd 2” value was 3.47. At recombinant TDO2, the half-maximal inhibitory concentration (IC50) is 0.165 µM and the “Enzyme TDO IC50 ratio” value was determined as 0.43.
For `OC(C1CCCCC1)C1CC1c1c(F)cccc1-c1c[nH]cn1` (centres unmarked) [Cmpd 304], in that order: 12.5 µM, 142.05, 3.1 µM and 3.87.
With `OC(/C=C/c1c(F)cccc1-c1c[nH]cn1)C1CCCCC1` (centres unmarked) [Cmpd 303], the half-maximal inhibitory concentration (IC50) on recombinant IDO1 was > 30 µM; at recombinant TDO2 it was 9.2 µM. The “Enzyme TDO IC50 ratio” value on recombinant TDO2 is 11.47.
`CC1c2ccccc2-c2cncn2C1C(O)C1CCCCC1` (centres unmarked) [Cmpd 295]: at recombinant IDO1, the IC50 came out at 14.5 µM and the “Enzyme IDO IC50 ratio compared to Cmpd 2” value came out at 216.42. For the same compound, at recombinant TDO2, the half-inhibitory concentration (IC50) was 8.4 µM and the “Enzyme TDO IC50 ratio” value is reported as 8.40.
The like results for `OC(CCc1c(F)cccc1-c1c[nH]cn1)C1CCCCC1` (centres unmarked) [Cmpd 302] were, in that order, 19.9 µM, 226.14, 15.5 µM and 19.33.
Consider `OC(CC1(C(F)(F)F)c2ccccc2-c2cncn21)C1CCCCC1` (centres unmarked) [Cmpd 291], for which the IC50 at recombinant IDO1 was > 100 µM. Further, on recombinant TDO2, the half-maximal inhibitory concentration (IC50) is 26 µM and the “Enzyme TDO IC50 ratio” value turned out to be 16.25.
For the compound `FC(CC1Cc2ccccc2-c2cncn21)C1CCCCC1` (centres unmarked) [Cmpd 311], at recombinant IDO1, the IC50 worked out at 0.31 µM and the “Enzyme IDO IC50 ratio compared to Cmpd 2” value was determined as 8.38. Moreover, at recombinant TDO2, the IC50 amounted to 0.111 µM and the “Enzyme TDO IC50 ratio” value was determined as 0.33.

The values are drawn from patent US10308647B2, “Fused imidazole derivatives as IDO/TDO inhibitors” (SciFluor Life Sciences, Inc., priority 2015, dated 2019).
